Experimental data taken from ChEMBL document CHEMBL5257125, “Discovery of pyrido[4,3-d]pyrimidinone derivatives as novel Wee1 inhibitors” (Bioorg Med Chem, 2023).

Columns and labels:
[1] = test system: T47D; assay: Antiproliferative activity against human T47D cells incubated for 72 hrs by Celltiter-glo assay; type: functional, cell-based
[2] = biological target: T1, Wee1-like protein kinase (Homo sapiens, UniProt P30291); assay: Inhibition of recombinant human Wee1 (214 to end residues) incubated for 1 hr in presence of tracer 178 by fluorescence based assay
Target sequence in this assay (P30291 whole entry): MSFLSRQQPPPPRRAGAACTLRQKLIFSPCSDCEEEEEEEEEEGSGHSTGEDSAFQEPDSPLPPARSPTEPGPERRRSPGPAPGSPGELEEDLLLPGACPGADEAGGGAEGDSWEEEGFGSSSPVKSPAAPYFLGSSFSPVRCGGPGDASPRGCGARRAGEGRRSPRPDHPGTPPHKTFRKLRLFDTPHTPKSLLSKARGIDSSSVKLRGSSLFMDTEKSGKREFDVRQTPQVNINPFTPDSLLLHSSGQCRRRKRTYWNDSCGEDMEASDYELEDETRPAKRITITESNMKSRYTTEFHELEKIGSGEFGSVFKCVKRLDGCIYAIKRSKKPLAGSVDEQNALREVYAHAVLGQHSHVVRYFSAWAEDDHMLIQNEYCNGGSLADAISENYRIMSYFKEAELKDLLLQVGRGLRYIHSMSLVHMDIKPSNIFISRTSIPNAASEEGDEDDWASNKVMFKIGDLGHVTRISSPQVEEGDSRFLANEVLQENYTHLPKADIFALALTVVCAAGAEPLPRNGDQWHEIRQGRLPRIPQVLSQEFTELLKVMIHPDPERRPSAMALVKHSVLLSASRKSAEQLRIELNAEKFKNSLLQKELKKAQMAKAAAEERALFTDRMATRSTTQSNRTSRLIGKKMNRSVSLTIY

[3] = test system: MV4-11; assay: Antiproliferative activity against human MV4-11 cells incubated for 72 hrs by Celltiter-glo assay; type: functional, cell-based; conditions: MV4-11, 72 h
[4] = test system: MV4-11; assay: Induction of apoptosis in human MV4-11 cells assessed as late apoptotic cells at 800 nM after 48 hrs by Annexin V FITC/PI staining based flow cytometry analysis (reference value: 4.07%); type: functional
[5] = test system: MV4-11; assay: Induction of apoptosis in human MV4-11 cells assessed as early apoptotic cells at 3200 nM after 48 hrs by Annexin V FITC/PI staining based flow cytometry analysis (reference value: 9.33%); type: functional
[6] = test system: MV4-11; assay: Induction of apoptosis in human MV4-11 cells assessed as necrotic cells at 1600 nM after 48 hrs by Annexin V FITC/PI staining based flow cytometry analysis (reference value: 0.00968%); type: functional
[7] = test system: MV4-11; assay: Induction of apoptosis in human MV4-11 cells assessed as early apoptotic cells at 200 nM after 48 hrs by Annexin V FITC/PI staining based flow cytometry analysis (reference value: 9.33%); type: functional
[8] = test system: MV4-11; assay: Induction of DNA damage in human MV4-11 cells assessed as increase in gamma-H2AX expression incubated for 24 hrs by Western blot analysis; type: functional, cell-based; conditions: dose 0.05-0.2 µM
[9] = test system: MV4-11; assay: Induction of apoptosis in human MV4-11 cells assessed as necrotic cells at 800 nM after 48 hrs by Annexin V FITC/PI staining based flow cytometry analysis (reference value: 0.00968%); type: functional
[10] = test system: MV4-11; assay: Induction of apoptosis in human MV4-11 cells assessed as early apoptotic cells at 1600 nM after 48 hrs by Annexin V FITC/PI staining based flow cytometry analysis (reference value: 9.33%); type: functional
[11] = test system: MV4-11; assay: Induction of apoptosis in human MV4-11 cells assessed as late apoptotic cells at 400 nM after 48 hrs by Annexin V FITC/PI staining based flow cytometry analysis (reference value: 4.07%); type: functional
[12] = test system: MV4-11; assay: Induction of apoptosis in human MV4-11 cells assessed as early apoptotic cells at 800 nM after 48 hrs by Annexin V FITC/PI staining based flow cytometry analysis (reference value: 9.33%); type: functional
[13] = test system: MV4-11; assay: Induction of apoptosis in human MV4-11 cells assessed as late apoptotic cells at 200 nM after 48 hrs by Annexin V FITC/PI staining based flow cytometry analysis (reference value: 4.07%); type: functional
[14] = test system: MV4-11; assay: Induction of apoptosis in human MV4-11 cells assessed as necrotic cells at 400 nM after 48 hrs by Annexin V FITC/PI staining based flow cytometry analysis (reference value: 0.00968%); type: functional
[15] = test system: MV4-11; assay: Induction of apoptosis in human MV4-11 cells assessed as viable cells at 400 nM after 48 hrs by Annexin V FITC/PI staining based flow cytometry analysis (reference value: 86.6%); type: functional; conditions: read-out: Activity
[16] = test system: MV4-11; assay: Induction of apoptosis in human MV4-11 cells assessed as viable cells at 1600 nM after 48 hrs by Annexin V FITC/PI staining based flow cytometry analysis (reference value: 86.6%); type: functional; conditions: read-out: Activity
[17] = test system: MV4-11; assay: Induction of apoptosis in human MV4-11 cells assessed as necrotic cells at 200 nM after 48 hrs by Annexin V FITC/PI staining based flow cytometry analysis (reference value: 0.00968%); type: functional
[18] = Metabolic stability in mouse liver microsomes assessed as parent compound remaining preincubated with NADPH for 5 mins followed by compound addition and measured upto 90 mins by LC-MS/MS analysis; type: ADME, Microsome; conditions: read-out: Stability
[19] = biological target: T1, Wee1-like protein kinase; assay: Inhibition of Wee1 in human MV4-11 cells assessed as reduction in phosphorylation of CDK1-Y15 incubated for 24 hrs by Western blot analysis; type: cell-based; conditions: dose 0.01-5 µM
Target sequence in this assay (P30291 whole entry, looked up): as the sequence (P30291 whole entry) above

[20] = test system: MV4-11; assay: Induction of apoptosis in human MV4-11 cells assessed as necrotic cells at 3200 nM after 48 hrs by Annexin V FITC/PI staining based flow cytometry analysis (reference value: 0.00968%); type: functional
[21] = test system: MV4-11; assay: Induction of apoptosis in human MV4-11 cells assessed as late apoptotic cells at 3200 nM after 48 hrs by Annexin V FITC/PI staining based flow cytometry analysis (reference value: 4.07%); type: functional
[22] = test system: MV4-11; assay: Induction of apoptosis in human MV4-11 cells assessed as late apoptotic cells at 1600 nM after 48 hrs by Annexin V FITC/PI staining based flow cytometry analysis (reference value: 4.07%); type: functional
[23] = test system: MV4-11; assay: Induction of apoptosis in human MV4-11 cells assessed as early apoptotic cells at 400 nM after 48 hrs by Annexin V FITC/PI staining based flow cytometry analysis (reference value: 9.33%); type: functional
[24] = test system: MV4-11; assay: Induction of cell cycle arrest in human MV4-11 cells assessed as accumulation of cells at G0/G1 phase at 800 nM incubated for 24 hrs by flow cytometry analysis; type: functional
[25] = test system: MV4-11; assay: Induction of apoptosis in human MV4-11 cells assessed as viable cells at 800 nM after 48 hrs by Annexin V FITC/PI staining based flow cytometry analysis (reference value: 86.6%); type: functional; conditions: read-out: Activity
[26] = test system: MV4-11; assay: Induction of apoptosis in human MV4-11 cells assessed as viable cells at 200 nM after 48 hrs by Annexin V FITC/PI staining based flow cytometry analysis (reference value: 86.6%); type: functional; conditions: read-out: Activity
[27] = test system: MV4-11; assay: Induction of apoptosis in human MV4-11 cells assessed as viable cells at 3200 nM after 48 hrs by Annexin V FITC/PI staining based flow cytometry analysis (reference value: 86.6%); type: functional; conditions: read-out: Activity

Structure (SMILES): CN(C)CCOc1ccc(Nc2cc3ncn(-c4c(Cl)cccc4Cl)c(=O)c3cn2)cc1
- IC50 [1]: 10400 nM
- IC50 [2]: 52 nM
- IC50 [3]: 1220 nM

Structure (SMILES): CN1CCN(c2ccc(Nc3cc4ncn(-c5c(Cl)cccc5Cl)c(=O)c4cn3)nc2)CC1
- IC50 [1]: 6390 nM
- IC50 [2]: 18 nM
- IC50 [3]: 1070 nM

Structure (SMILES): CN(C)C1CCN(c2ccc(Nc3cc4ncn(-c5c(Cl)cccc5Cl)c(=O)c4cn3)cc2)CC1
- IC50 [2]: 73 nM

Structure (SMILES): O=c1c2cnc(Nc3ccc(N4CCC(O)CC4)cc3)cc2ncn1-c1c(Cl)cccc1Cl
- IC50 [2]: 96 nM

Structure (SMILES): CC(=O)N1CCN(c2ccc(Nc3cc4ncn(-c5c(Cl)cccc5Cl)c(=O)c4cn3)cc2)CC1
- IC50 [2]: 294 nM

Structure (SMILES): NC1CCN(c2ccc(Nc3cc4ncn(-c5c(Cl)cccc5Cl)c(=O)c4cn3)cc2)CC1
- IC50 [1]: 18800 nM
- IC50 [2]: 65 nM
- IC50 [3]: 2690 nM

Structure (SMILES): CN1CCN(c2ccc(Nc3cc4ncn(-c5c(F)cccc5Cl)c(=O)c4cn3)cc2)CC1
- IC50 [2]: 268 nM

Structure (SMILES): C[C@@H]1CN(c2ccc(Nc3cc4ncn(-c5c(Cl)cccc5Cl)c(=O)c4cn3)cc2CNC2CC2)C[C@H](C)N1
- IC50 [2]: 107 nM

Structure (SMILES): N[C@H]1CCCN(c2ccc(Nc3cc4ncn(-c5c(Cl)cccc5Cl)c(=O)c4cn3)cc2)C1
- IC50 [1]: 4680 nM
- IC50 [2]: 41 nM
- IC50 [3]: 1460 nM

Structure (SMILES): Cc1cccc(Cl)c1-n1cnc2cc(Nc3ccc(N4CCN(C)CC4)cc3)ncc2c1=O
- IC50 [2]: 78 nM

Structure (SMILES): O=c1c2cnc(Nc3ccc(N4CCC(CO)CC4)cc3)cc2ncn1-c1c(Cl)cccc1Cl
- IC50 [2]: 515 nM

Structure (SMILES): COc1cc(Nc2cc3ncn(-c4c(Cl)cccc4Cl)c(=O)c3cn2)ccc1N1C[C@@H](C)N[C@@H](C)C1
- IC50 [2]: 52 nM

Structure (SMILES): CN1CCN(Cc2ccc(Nc3cc4ncn(-c5c(Cl)cccc5Cl)c(=O)c4cn3)cc2)CC1
- IC50 [2]: 124 nM

Structure (SMILES): O=c1c2cnc(Nc3ccc(C4CCNCC4)cc3)cc2ncn1-c1c(Cl)cccc1Cl
- IC50 [2]: 78 nM

Structure (SMILES): CC(=O)Nc1cc(Nc2cc3ncn(-c4c(Cl)cccc4Cl)c(=O)c3cn2)ccc1N1C[C@@H](C)N[C@@H](C)C1
- Activity [4]: 0.12%
- Activity [5]: 21.3%
- Activity [6]: 0.048%
- Activity [7]: 12%
- IC50 [1]: 4640 nM
- Activity [8]: Dose-Dependent Effect
- Activity [9]: 0.029%
- Activity [10]: 12.4%
- Activity [11]: 5.09%
- IC50 [2]: 21 nM
- Activity [12]: 12.2%
- Activity [13]: 3.34%
- IC50 [3]: 763 nM
- Activity [14]: 0.02%
- viability at 0.4 µM [15]: 84.5%
- viability at 1.6 µM [16]: 82.4%
- Activity [17]: 0.00954%
- remaining at 1.5 h [18]: 60%
- inhibition [19]: Dose-Dependent Effect
- Activity [20]: 0.01%
- Activity [21]: 12%
- Activity [22]: 5.11%
- Activity [23]: 10.4%
- Activity [24]: 63%
- viability at 0.8 µM [25]: 81.7%
- viability at 0.2 µM [26]: 84.7%
- viability at 3.2 µM [27]: 66.7%

Structure (SMILES): O=c1c2cnc(Nc3ccc(N4CCN(C5CC5)CC4)cc3)cc2ncn1-c1c(Cl)cccc1Cl
- IC50 [2]: 97 nM

Structure (SMILES): O=c1c2cnc(Nc3ccc(NC4CCNCC4)cc3)cc2ncn1-c1c(Cl)cccc1Cl
- IC50 [1]: > 20000 nM
- IC50 [2]: 77 nM
- IC50 [3]: 2470 nM

Structure (SMILES): C=CCn1c(=O)c2cnc(Nc3ccc(N4CCN(C)CC4)cc3)nc2n1-c1cccc(C(C)(C)O)n1 [ADAVOSERTIB]
- IC50 [1]: 12800 nM
- IC50 [3]: 95 nM

Structure (SMILES): C[C@@H]1CN(c2ccc(Nc3cc4ncn(-c5c(Cl)cccc5Cl)c(=O)c4cn3)cc2CO)C[C@H](C)N1
- IC50 [1]: 3230 nM
- IC50 [2]: 23 nM
- IC50 [3]: 791 nM
- remaining at 1.5 h [18]: > 50%

Structure (SMILES): CC(C)N1CCN(c2ccc(Nc3cc4ncn(-c5c(Cl)cccc5Cl)c(=O)c4cn3)cc2)CC1
- IC50 [2]: 38 nM
